Experiments:
Experiment in all cases: relative viability (nuclei count vs DMSO), 5 days (fraction); higher = more cells survive
Crenolanib + Foretinib = compound: CC1(COc2ccc3c(c2)ncn3-c2ccc3cccc(N4CCC(N)CC4)c3n2)COC1 [Crenolanib] + COc1cc2c(Oc3ccc(NC(=O)C4(C(=O)Nc5ccc(F)cc5)CC4)cc3F)ccnc2cc1OCCCN1CCOCC1 [Foretinib] (partner 0.25 µM)
Method in brief: (§1)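 Cells from lung cancer lines were seeded into 1536-well plates and, one day later, dosed by pin tool. Treatments were either a single drug or a fixed dose of an anchor drug with five library-drug doses (not always all listed) in √10 steps. After 5 days, nuclei were stained in a one-step fixation (final 0.05% Triton X-100, 1% formaldehyde, 1 ug/ml Hoechst) and counted on 4× images, and relative viability is the treated-to-vehicle nuclei ratio, as the median of duplicate plates.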

Tivantinib + OSI-027 = compound: O=C1NC(=O)[C@@H](c2cn3c4c(cccc24)CCC3)[C@@H]1c1c[nH]c2ccccc12 [Tivantinib] + COc1cccc2cc(-c3nc([C@H]4CC[C@H](C(=O)O)CC4)n4ncnc(N)c34)[nH]c12 [OSI-027] (partner 0.5 µM)
Method in brief: as §1

Crenolanib + Lapatinib = compound: CC1(COc2ccc3c(c2)ncn3-c2ccc3cccc(N4CCC(N)CC4)c3n2)COC1 [Crenolanib] + CS(=O)(=O)CCNCc1ccc(-c2ccc3ncnc(Nc4ccc(OCc5cccc(F)c5)c(Cl)c4)c3c2)o1 [Lapatinib] (partner 2 µM)
Method in brief: as §1

Tivantinib + AZD7762 = compound: O=C1NC(=O)[C@@H](c2cn3c4c(cccc24)CCC3)[C@@H]1c1c[nH]c2ccccc12 [Tivantinib] + NC(=O)Nc1cc(-c2cccc(F)c2)sc1C(=O)N[C@H]1CCCNC1 [AZD7762] (partner 0.2 µM)
Method in brief: as §1

Cell Line	relative viability (Crenolanib + Foretinib; first compound 0.01 µM)	relative viability (Crenolanib + Foretinib; first compound 0.03162 µM)	relative viability (Crenolanib + Foretinib; first compound 0.1 µM)	relative viability (Crenolanib + Foretinib; first compound 0.3162 µM)	relative viability (Crenolanib + Foretinib; first compound 1 µM)	relative viability (Tivantinib + OSI-027; first compound 0.01 µM)	relative viability (Tivantinib + OSI-027; first compound 0.03162 µM)	relative viability (Tivantinib + OSI-027; first compound 0.1 µM)	relative viability (Tivantinib + OSI-027; first compound 0.3162 µM)	relative viability (Crenolanib + Lapatinib; first compound 0.01 µM)	relative viability (Crenolanib + Lapatinib; first compound 0.03162 µM)	relative viability (Crenolanib + Lapatinib; first compound 0.1 µM)	relative viability (Crenolanib + Lapatinib; first compound 0.3162 µM)	relative viability (Crenolanib + Lapatinib; first compound 1 µM)	relative viability (Tivantinib + AZD7762; first compound 0.01 µM)	relative viability (Tivantinib + AZD7762; first compound 0.03162 µM)	relative viability (Tivantinib + AZD7762; first compound 0.1 µM)	relative viability (Tivantinib + AZD7762; first compound 0.3162 µM)
NCI-H1666	0.987	0.897	0.886	1.02	0.974	0.83	0.743	0.876	0.687	0.772	0.579	0.799	0.872	0.509	0.904	0.841	0.835	0.705
NCI-H1734	1.02	0.773	0.859	0.925	0.876	0.646	0.553	0.643	0.576	1	1.08	0.995	1.27	0.937	0.6	0.487	0.505	0.478
NCI-H1755	0.944	0.905	0.889	0.937	0.908	0.775	0.662	0.69	0.791	1.02	1.08	0.987	1.12	0.967	0.457	0.476	0.47	0.424
NCI-H1793	0.669	0.895	0.64	0.608	0.689	0.257	0.355	0.258	0.154	0.767	0.799	0.475	0.855	0.645	0.355	0.645	0.412	0.378
NCI-H1915	1.09	1.09	1.04	1.1	0.992	0.626	0.543	0.648	0.715	0.943	0.927	1.01	0.956	0.764	0.654	0.771	0.629	0.665
NCI-H1944	0.857	0.865	0.872	0.887	0.817	0.372	0.349	0.393	0.328	0.814	0.809	0.839	0.617	0.698	0.513	0.511	0.472	0.426
NCI-H1975	1.06	0.969	0.847	0.94	1.04	0.751	0.752	0.611	0.691	0.844	0.968	0.774	0.891	0.702	0.734	0.667	0.714	
NCI-H1993	0.768	0.551	0.719	0.889	0.731	0.538	0.57	0.563	0.61	0.805	0.759	0.856	0.787	0.784	0.768	0.715	0.656	0.455
NCI-H2085	1.01	0.845	0.847	1.04	1.12	0.773	0.582	0.851	0.412	0.65	0.81	0.731	0.745	0.799	1.01	0.944	0.942	0.813
NCI-H2087	1.23	1.32	1.1	1.27	1.27	0.635	0.511	0.465	0.478	1.14	1	0.985	1.18	1.09	1.28	1.47	1.12	1.32
NCI-H2126	1.24	1.37	0.985	1.41	1.23	0.639	0.63	0.658	0.549	0.796	0.742	0.745	0.775	0.71	1	1.03	0.94	1.04
NCI-H2170	0.961	0.989	0.719	0.99	1.02	0.645	0.718	0.652		0.272	0.283	0.281	0.276	0.247	0.878	0.822	0.794	
NCI-H2347	0.879	0.757		1.02	0.901	0.48	0.386	0.418	0.475	0.981	0.903	0.663	1.05	0.873	0.848	0.727	0.669	0.534
NCI-H2405	1.16	1.05		1.02	1.06	0.717	0.637	0.632	0.574	1.02	1.13	0.85	0.998	0.948	0.877	0.806	0.753	0.828
NCI-H3122	0.927	0.98	0.985	0.963	1.04	0.985	0.914	0.93	0.207	1.02	0.976	1.01	1.09	1.21	1.05	1.07	0.761	0.923
PC-3 [JPC-3]	1.16	1.12	0.955	1.05	1.03	0.841	0.724	0.716	0.48	0.452	0.45	0.511	0.449	0.452	0.781	0.823	0.884	0.601
PC-14	1.01	0.904	0.952	1.06	0.933	0.942	0.784	0.755	0.598	0.311	0.294	0.335	0.335	0.324	0.296	0.304	0.4	0.226
RERF-LC-KJ	0.852	0.838	0.906	0.968	0.909	0.592	0.646	0.512	0.389	0.917	0.886	0.903	0.872	0.812	1.08	0.921	0.952	0.92

Reference: the supplement of paper PMC10307832
